# Measured values taken from patent US20090105225A1, “2-Substituted 4-Benzylphthalazinone Derivatives as Histamine H1 and H3 Antagonists” (GLAXO GROUP LIMITED, priority 2006, published 2009).
# Where a name gives a salt, the structure may show the parent alone.
# Tests used:
# human H1 receptor = molecular target: T1, human H1 receptor (Homo sapiens, UniProt P35367); assay: Histamine H1 functional antagonist assay (FLIPR): determination of antagonist pA2 and duration; type: cell-based; details: at one or more time points; compared with azelastine
# T1 construct: expressed in transfected cells
# Experimental: The human H1 receptor is cloned using known procedures described in the literature [Biochem. Biophys. Res. Commun., 201(2):894 (1994)]. Chinese hamster ovary (CHO) cells stably expressing the human H1 receptor are generated according to known procedures described in the literature [Br. J. Pharmacol., 117(6):1071 (1996)].
# The histamine H1 receptor expressing CHO cells are seeded into non-coated black-walled clear bottom 96-well tissue culture plates as described above.
# Following overnight culture, growth medium is removed from each well, washed with 200 μl phosphate buffered saline (PBS) and is replaced with 50 μl loading dye (250 μM Brilliant Black, 1 μM Fluo-4 diluted in Tyrodes buffer+probenecid (145 mM NaCl, 2.5 mM KCl, 10 mM HEPES, 10 mM D-glucose, 1.2 mM MgCl2, 1.5 mM CaCl2, 2.5 mM probenecid, pH adjusted to 7.40 with NaOH 1.0 M)). Cells are incubated for 45 min at 37° C. The loading buffer is removed and the cells are washed as above, and 90 μl of Tyrodes buffer+probenecid is added to each well. 10 μl of test compound, diluted to the required concentration in Tyrodes buffer+probenecid (or 10 μl Tyrodes buffer+probenecid as a control) is added to each well and the plate is incubated for 30 min at 37° C., 5% CO2.
# The plates are then placed into a FLIPR™ (Molecular Devices, UK) to monitor cell fluorescence (λex=488 nm, λEM=540 nm) in the manner described in Sullivan et al., (In: Lambert D G (ed.), Calcium Signaling Protocols, New Jersey: Humana Press, 1999, 125-136) before and after the addition of 50 μl histamine over a concentration range of 1 mM-0.1 nM. The resultant concentration response curves are analysed by non-linear regression using a standard four parameter logistic equation to determine the histamine EC50, the concentration of histamine required to produce a response of 50% of the maximum response to histamine. The antagonist pA2 is calculated using the following standard equation: pA2=log(DR−1)−log [B] where DR=dose ratio, defined as EC50 antagonist-treated/EC50 control and [B]=concentration of antagonist.
# To determine the antagonist duration, cells are cultured overnight in non-coated black-walled clear bottom 96-well tissue culture plates, are washed with PBS and are incubated with a concentration of antagonist chosen to give an approximate DR in the range 30-300. Following the 30 min antagonist incubation period, the cells are washed two or three times with 200 μl of PBS and then 100 μl Tyrodes buffer is added to each well to initiate antagonist dissociation. Following incubation for predetermined times, typically 30-270 min at 37° C., the cells are then washed again with 200 μl PBS and are incubated with 100 μl Tyrodes buffer containing Brilliant Black, probenecid and Fluo-4 for 45 min at 37° C., as described above. After this period, the cells are challenged with histamine in the FLIPR™ as described above. The dose ratio at each time point is used to determine the fractional H1 receptor occupancy by the following equation: fractional receptor occupancy=(DR-1)/DR. The decrease in receptor occupancy over time approximates to a straight line and is analysed by linear regression. The slope of this straight line fit is used as an index of the dissociation rate of the antagonist. The dose ratios for antagonist treated cells and for antagonist treated and washed cells at each time point are used to calculate a relative dose ratio (rel DR) which is also used as an index of antagonist duration. Antagonists with long duration of action produce rel DR values close to 1, and antagonists with short duration of action produce rel DR values that approaches the dose ratio value obtained for antagonist treatment alone.
# [1] = CNS penetration (intravenous bolus or steady-state infusion, brain and blood concentration); type: in vivo, rat; details: compared with azelastine
# Experimental: Compounds are dosed intravenously at a nominal dose level of 1 mg/kg to male CD Sprague Dawley rats. Compounds are formulated in 5% DMSO/45% PEG200/50% water. Blood samples are taken under terminal anaesthesia with isoflurane at 5 min post-dose and the brains are also removed for assessment of brain penetration. Blood samples are taken directly into heparinised tubes. Blood samples are prepared for analysis using protein precipitation and brain samples are prepared using extraction of drug from brain by homogenisation and subsequent protein precipitation. The concentration of parent drug in blood and brain extracts is determined by quantitative LC-MS/MS analysis using compound-specific mass transitions.
# A loading dose of the compounds is given to male CD Sprague Dawley rats at a nominal dose level of 0.4 mg/kg. The compounds are then infused intravenously for 4 h at a nominal dose level of 0.1 mg/kg/h. Compounds are formulated in 2% DMSO/30% PEG200/68% water. Serial or terminal blood samples are taken at 0.5, 1.5, 2.5, 3, 3.5 and 4 h post dose. The final blood sample is collected under terminal anaesthesia with isoflurane and the brains are also removed for assessment of brain penetration. Blood samples are taken directly into heparinised tubes. Blood samples are prepared for analysis using protein precipitation and brain samples are prepared using extraction of drug from brain by homogenisation and subsequent protein precipitation. The concentration of parent drug in blood and brain extracts is determined by quantitative LC-MS/MS analysis using compound-specific mass transitions.
# [2] = test system: histamine-induced congestion; assay: Intranasal histamine challenge, whole body plethysmography; type: in vivo; details: 24 hours after dosing; compared to azelastine; Guinea Pig whole body plethysmography model (FIG. 3)
# Experimental: Female Dunkin-Hartley guinea pigs 150-250 g are sensitised twice daily for 5 days (week 1) with ovalbumin (OVA) and aluminium hydroxide (Al(OH)3 or Alum) in physiological saline, 25 μl/nostril. Solution is made up at 20 μg/ml OVA, 180 mg/ml Alum. During weeks 2 and 3, animals receive 25 μl/nostril of OVA (5 mg/ml) once daily. During Week 4 guinea pigs will be entered into study but are continually sensitized as per weeks 2 and 3 until the day before dosing with compound or vehicle.
# Pretreatment with test compound is performed at various times prior to histamine challenge. Efficacy dose-response curves are determined 1 h after dosing whereas duration of action is studied up to 7 days post dose. Test compounds are formulated as solutions in 0.9% sterile saline or suspensions in 0.9% sterile saline/tween80. […]
# After the stipulated pre-dose time has been reached, guinea pigs are re-anaesthetised with isoflurane and dosed with either 15 mM histamine or phosphate-buffered saline (PBS), (25 μl per nostril). […] Data are analysed using ANOVA with post-hoc Fishers LSD test (general linear models, Statistica®) and finally Hochberg adjustment. Inhibition of histamine-induced congestion is determined by statistically significant differences between the mean responses of compound pre-treated groups compared to the vehicle pre-treated, histamine-challenged group.
# T1 sequence (P35367 whole entry): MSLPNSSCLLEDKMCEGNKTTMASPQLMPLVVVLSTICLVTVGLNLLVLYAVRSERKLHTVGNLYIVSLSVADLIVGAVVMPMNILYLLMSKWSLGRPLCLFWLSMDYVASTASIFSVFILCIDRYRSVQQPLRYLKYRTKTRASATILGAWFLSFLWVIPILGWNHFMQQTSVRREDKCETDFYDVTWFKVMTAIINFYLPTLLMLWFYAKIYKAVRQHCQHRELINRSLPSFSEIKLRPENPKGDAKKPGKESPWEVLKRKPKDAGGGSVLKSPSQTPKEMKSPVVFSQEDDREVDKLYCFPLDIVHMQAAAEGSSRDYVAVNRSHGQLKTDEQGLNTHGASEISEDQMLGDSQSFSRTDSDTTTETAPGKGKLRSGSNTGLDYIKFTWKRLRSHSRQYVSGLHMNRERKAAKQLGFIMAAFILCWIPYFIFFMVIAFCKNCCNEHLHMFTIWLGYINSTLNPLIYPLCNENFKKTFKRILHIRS
Structure (SMILES),duration of action in the histamine H1 functional antagonist assay (human H1 receptor),CNS penetration [1],inhibition of nasal congestion [2]
"COc1ccc(Cc2nn(C[C@H]3CCCN3CCCCc3ccc(OCCCN4CCCCCC4)cc3)c(=O)c3ccccc23)cc1 [Example 7, 2-({(2R)-1-[4-(4-{[3-(Hexahydro-1H-azepin-1-yl)propyl]oxy}phenyl)butyl]-2-pyrrolidinyl}methyl)-4-{[4-(methyloxy)phenyl]methyl}-1(2H)-phthalazinone Diformate]",longer duration of action than azelastine,lower CNS penetration than azelastine,–
"O=c1c2ccccc2c(Cc2ccc(O)cc2)nn1C[C@H]1CCCN1CCCCc1ccc(OCCCN2CCCCCC2)cc1 [Example 8, 2-({(2R)-1-[4-(4-{[3-(Hexahydro-1H-azepin-1-yl)propyl]oxy}phenyl)butyl]-2-pyrrolidinyl}methyl)-4-[(4-hydroxyphenyl)methyl]-1(2H)-phthalazinone]",longer duration of action than azelastine,–,–
"O=c1c2ccccc2c(Cc2ccc(F)cc2)nn1C[C@H]1CCCN1CCCCc1ccc(OCCCN2CCCCCC2)cc1 [Example 9, 4-[(4-Fluorophenyl)methyl]-2-({(2R)-1-[4-(4-{[3-(hexahydro-1H-azepin-1-yl)propyl]oxy}phenyl)butyl]-2-pyrrolidinyl}methyl)-1(2H)-phthalazinone]",longer duration of action than azelastine,–,–
"O=c1c2ccccc2c(Cc2ccc(Cl)cc2)nn1C[C@H]1CCCN1CCCOc1ccc2c(c1)CCN(C1CCC1)CC2 [Example 15, 4-[(4-Chlorophenyl)methyl]-2-[((2R)-1-{3-[(3-cyclobutyl-2,3,4,5-tetrahydro-1H-3-benzazepin-7-yl)oxy]propyl}-2-pyrrolidinyl)methyl]-1(2H)-phthalazinone]",longer duration of action than azelastine,–,–
"O=c1c2ccccc2c(Cc2ccc(Cl)cc2)nn1C1CCCN(CCCOc2ccc3c(c2)CCN(C2CCC2)CC3)CC1 (centres unmarked) [Example 16, 4-[(4-Chlorophenyl)methyl]-2-(1-{3-[(3-cyclobutyl-2,3,4,5-tetrahydro-1H-3-benzazepin-7-yl)oxy]propyl}hexahydro-1H-azepin-4-yl)-1(2H)-phthalazinone Formate Salt]",–,comparable CNS penetration to azelastine,–
"O=C(NCCN1CCCC(n2nc(Cc3ccc(Cl)cc3)c3ccccc3c2=O)CC1)c1ccc2c(c1)CCN(C1CCC1)CC2 (centres unmarked) [Example 18, N-(2-{4-[4-[(4-Chlorophenyl)methyl]-1-oxo-2(1H)-phthalazinyl]hexahydro-1H-azepin-1-yl}ethyl)-3-cyclobutyl-2,3,4,5-tetrahydro-1H-3-benzazepine-7-carboxamide Diformate Salt]",longer duration of action than azelastine,–,–
O=c1c2ccncc2c(Cc2ccc(Cl)cc2)nn1C[C@H]1CCCN1CCCCc1ccc(OCCCN2CCCCCC2)cc1 [Example 23],longer duration of action than azelastine,–,–
"O=c1c2ccccc2c(Cc2ccc(Cl)cc2)nn1C[C@H]1CCCN1CCCCc1ccc(OCCCN2CCCCCC2)cc1 [Example 24, 4-[(4-Chlorophenyl)methyl]-2-({(2R)-1-[4-(4-{[3-(hexahydro-1H-azepin-1-yl)propyl]oxy}phenyl)butyl]-2-pyrrolidinyl}methyl)-1(2H)-phthalazinone Free Base]",significantly longer duration of action than azelastine,lower CNS penetration than azelastine,statistically significant inhibition of nasal congestion
